Here are results for 25 compounds from patent publication US9290453B2 (Merck Sharp & Dohme Corp., priority 2010, dated 2016).

Usually Ki stands for the dissociation constant of the complex between target and ligand, obtained from inhibition or displacement. A higher Ki goes with lower affinity.

In one assay the target is T1, hCRTH2 (Homo sapiens, UniProt Q9Y5Y4).
T1 construct: expressed in transfected cells; host or cells: HEK (human embryonic kidney) cells expressing hCRTH2
T1 sequence (Q9Y5Y4 1-395): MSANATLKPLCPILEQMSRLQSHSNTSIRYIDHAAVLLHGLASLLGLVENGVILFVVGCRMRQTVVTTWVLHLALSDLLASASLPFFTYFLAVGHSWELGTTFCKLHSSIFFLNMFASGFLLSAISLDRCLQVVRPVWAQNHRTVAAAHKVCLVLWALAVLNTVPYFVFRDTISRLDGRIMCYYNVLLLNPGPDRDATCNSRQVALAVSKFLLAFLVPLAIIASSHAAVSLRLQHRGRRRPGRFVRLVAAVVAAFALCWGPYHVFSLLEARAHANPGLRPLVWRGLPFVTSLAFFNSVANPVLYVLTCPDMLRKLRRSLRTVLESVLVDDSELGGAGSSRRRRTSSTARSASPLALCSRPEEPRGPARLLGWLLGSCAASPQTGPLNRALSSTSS
The experiment in a line: Radioligand Binding Assay A ([3H]PGD2 filtration binding, HEK-hCRTH2 membranes). Conditions: Table A, rated A-D. As for the experimental part:
Radioligand binding assays were performed at room temperature in 50 mM Tris-HCl pH 7.4, 1 mM EDTA containing 2 mM MnCl2 and 3.0 nM [^3H]PGD2 (New England Nuclear, Boston, Mass.) (171 Ci mmol^−1), in a final volume of 0.2 ml. Competing ligands were diluted in dimethylsulfoxide (Me2SO) that was kept constant at 1% (v/v) of the final incubation volume. The reaction was initiated by the addition of 8-20 μg of membrane protein prepared from a human embryonic kidney (HEK)-hCRTH2 cell line. Total and non-specific binding were determined in the absence and the presence of 10 μM PGD2, respectively. Under these conditions, specific binding (total minus non-specific) of the radioligand to the receptor reached equilibrium within 50 min and was stable up to 180 min. The reaction was routinely conducted for 60 min at room temperature and terminated by rapid filtration through prewetted (0.3% polyethyleneimine) 96-well printed Filtermate™ (Wallac) using a Tomtec® harvester (Hamden, Conn.). After washing with cold buffer, the filter was dried for 2 minutes in microwave, and Meltilex Scintillator sheet (Wallac) was melted on for 2 min. The radioactivity was measured with Betaplate model 1205 (Wallac).
Compound `O=C(O)CCCCc1cc2cc(C(=O)N[C@H]3CCCc4cc(Cl)ccc43)ccc2nc1-c1ccc(F)cc1` [Compound 5S, 6-[[(6-chloro-1,2,3,4-tetrahydro-1(S)-naphthalenyl)amino]carbonyl]-2-(4-fluorophenyl)-3-quinolinepentanoic acid] registered a Ki of 2.1 to 20 nM.
For `N#Cc1ccc([C@H](NC(=O)c2ccc3nc(-c4ccc(F)cc4)c(CCCCC(=O)O)cc3c2)C(F)(F)F)cc1` [Compound 5T], the Ki lay within 20.1 to 200 nM.
Same read-out and setting: then `CN(Cc1ccc(Cl)cc1)C(=O)c1ccc2nc(-c3ccc(F)cc3)c(CCCCC(=O)O)cc2c1` [Compound 5U, 6-[[[(4-chlorophenyl)methyl]methylamino]carbonyl]-2-(4-fluorophenyl)-3-quinolinepentanoic acid], with 2.1 to 20 nM; and `CN(Cc1ccc(C(F)(F)F)cc1)C(=O)c1ccc2nc(-c3ccc(F)cc3)c(CCCCC(=O)O)cc2c1` [Compound 5V, 2-(4-fluorophenyl)-6-[[methyl[[4-(trifluoromethyl)phenyl]methyl]amino]carbonyl]-3-quinolinepentanoic acid], with 2.1 to 20 nM; and `CN(Cc1cccc(C(F)(F)F)c1)C(=O)c1ccc2nc(-c3ccc(F)cc3)c(CCCCC(=O)O)cc2c1` [Compound 5W, 2-(4-fluorophenyl)-6-[[methyl[[3-(trifluoromethyl)phenyl]methyl]amino]carbonyl]-3-quinolinepentanoic acid], with 20.1 to 200 nM.
On the same count and under the same terms, to `C[C@@H](NC(=O)c1ccc2nc(-c3ccc(F)cc3)c(CCCCC(=O)O)cc2c1)c1cc(Cl)cc(Cl)c1` [Compound 5X, 6-[[[1(R)-(3,5-dichlorophenyl)ethyl]amino]carbonyl]-2-(4-fluorophenyl)-3-quinolinepentanoic acid] belongs 2.1 to 20 nM.
On the same count and under the same terms, then `C[C@H](NC(=O)c1ccc2nc(-c3ccc(F)cc3)c(CCCCC(=O)O)cc2c1)c1cc(Cl)cc(Cl)c1` [Compound 5Y, 6-[[[1(S)-(3,5-dichlorophenyl)ethyl]amino]carbonyl]-2-(4-fluorophenyl)-3-quinolinepentanoic acid], with 2.1 to 20 nM; and `C[C@H](NC(=O)c1ccc2nc(-c3ccc(F)cc3)c(CCCCC(=O)O)cc2c1)c1ccc(Cl)cc1` [Compound 5i], with 2.1 to 20 nM.
For the compound `O=C(O)CCCCc1cc2cc(C(=O)N[C@@H]3CCc4cc(Cl)ccc43)ccc2nc1-c1ccc(F)cc1` [Compound 5o, 6-[[(5-chloro-2,3-dihydro-1H-inden-1(R)-yl)amino]carbonyl)-2-(4-fluorophenyl)-3-quinolinepentanoic acid], the Ki is 2.1 to 20 nM.
`C[C@@H](NC(=O)c1cnc2nc(-c3ccc(F)cc3)c(CCCCC(=O)O)cc2c1)c1ccc(Cl)cc1` [Compound 6, 6-[[[1(R)-(4-chlorophenyl)ethyl]amino]carbonyl]-2-(4-fluorophenyl)-1,8-naphthyridine-3-pentanoic acid] showed a Ki of 20.1 to 200 nM.
On the same count and under the same terms, to `C[C@@H](NC(=O)c1cnc2nc(-c3ccc(F)cc3)c(CCCCC(=O)O)cc2c1)c1ccc(F)cc1` [Compound 6D, 2-(4-fluorophenyl)-6-[[[1(R)-(4-fluorophenyl)ethyl]amino]carbonyl]-1,8-naphthyridine-3-pentanoic acid] belongs 20.1 to 200 nM.
The same measure, in the same setting: then `O=C(O)CCCCc1cc2cc(C(=O)N[C@@H]3CCc4cc(Cl)ccc43)cnc2nc1-c1ccc(F)cc1` [Compound 6E, 6-[[(5-chloro-2,3-dihydro-1H-inden-1(R)-yl)amino]carbonyl]-2-(4-fluorophenyl)-1,8-naphthyridine-3-pentanoic acid], with 2.1 to 20 nM.
Still for that read-out and setting: to `O=C(O)CCCCc1cc2cc(C(=O)N[C@@H]3CCc4ccc(F)cc43)cnc2nc1-c1ccc(F)cc1` [Compound 6F, 6-[[(6-fluoro-2,3-dihydro-1H-inden-1(R)-yl)amino]carbonyl]-2-(4-fluorophenyl)-1,8-naphthyridine-3-pentanoic acid] belongs 20.1 to 200 nM; to `O=C(O)CCCCc1cc2cc(C(=O)N[C@@H]3CCCc4cc(Cl)ccc43)cnc2nc1-c1ccc(F)cc1` [Compound 6G, 6-[[(6-chloro-1,2,3,4-tetrahydro-1(R)-naphthalenyl)amino)carbonyl]-2-(4-fluorophenyl)-1,8-naphthyridine-3-pentanoic acid], 2.1 to 20 nM; to `O=C(O)CCCCc1cc2cc(C(=O)N[C@@H]3CCCc4ccc(F)cc43)cnc2nc1-c1ccc(F)cc1` [Compound 6H, 2-(4-fluorophenyl)-6-[[(7-fluoro-1,2,3,4-tetrahydro-1(R)-naphthalenyl)amino]carbonyl]-1,8-naphthyridine-3-pentanoic acid], 20.1 to 200 nM.
For `C[C@H](NC(=O)c1cnc2nc(-c3ccc(F)cc3)c(CCCCC(=O)O)cc2c1)c1ccc(Cl)cc1` [Compound 6J, 6-[[[1(S)-(4-chlorophenyl)ethyl]amino]carbonyl]-2-(4-fluorophenyl)-1,8-naphthyridine-3-pentanoic acid], the Ki is 20.1 to 200 nM.
Same read-out and setting: then `C[C@H](NC(=O)c1cnc2nc(-c3ccc(F)cc3)c(CCCCC(=O)O)cc2c1)c1ccc(F)cc1` [Compound 6K, 2-(4-fluorophenyl)-6-[[[1(S)-(4-fluorophenyl)ethyl]amino]carbonyl]-1,8-naphthyridine-3-pentanoic acid], with 20.1 to 200 nM.
Still for that read-out and setting: then `O=C(O)CCCCc1cc2cc(C(=O)N[C@H]3CCc4cc(Cl)ccc43)cnc2nc1-c1ccc(F)cc1` [Compound 6L, 6-[[(5-chloro-2,3-dihydro-1H-inden-1(S)-yl)amino]carbonyl]-2-(4-fluorophenyl)-1,8-naphthyridine-3-pentanoic acid], with 2.1 to 20 nM; and `O=C(O)CCCCc1cc2cc(C(=O)N[C@H]3CCc4ccc(F)cc43)cnc2nc1-c1ccc(F)cc1` [Compound 6M, 6-[[(6-fluoro-2,3-dihydro-1H-inden-1(S)-yl)amino]carbonyl]-2-(4-fluorophenyl)-1,8-naphthyridine-3-pentanoic acid], with 20.1 to 200 nM.
Still for that read-out and setting: then `O=C(O)CCCCc1cc2cc(C(=O)N[C@H]3CCCc4cc(Cl)ccc43)cnc2nc1-c1ccc(F)cc1` [Compound 6N, 6-[[(6-chloro-1,2,3,4-tetrahydro-1(S)-naphthalenyl)amino]carbonyl]-2-(4-fluorophenyl)-1,8-naphthyridine-3-pentanoic acid], with 20.1 to 200 nM.
Turning to `COc1ccc([C@H](NC(=O)c2cnc3nc(-c4ccc(F)cc4)c(CCCCC(=O)O)cc3c2)C(F)(F)F)cc1` [Compound 6P, 2-(4-fluorophenyl)-6-[[[2,2,2-trifluoro-1(S)-(4-methoxyphenyl)ethyl]amino]carbonyl]-1,8-naphthyridine-3-pentanoic acid], the Ki was 20.1 to 200 nM.
The same measure, in the same setting: then `O=C(O)CCCCc1cc2cc(C(=O)N[C@H](c3cc(Cl)cc(Cl)c3)C(F)(F)F)cnc2nc1-c1ccc(F)cc1` [Compound 6Q, 6-[[[1(R)-(3,5-dichlorophenyl)-2,2,2-trifluoroethyl]amino]carbonyl]-2-(4-fluorophenyl)-1,8-naphthyridine-3-pentanoic acid], with 2.1 to 20 nM; and `O=C(O)CCCCc1cc2cc(C(=O)N[C@@H](c3cc(Cl)cc(Cl)c3)C(F)(F)F)cnc2nc1-c1ccc(F)cc1` [Compound 6R, 6-[[[1(S)-(3,5-dichlorophenyl)-2,2,2-trifluoroethyl]amino]carbonyl]-2-(4-fluorophenyl)-1,8-naphthyridine-3-pentanoic acid], with 2.1 to 20 nM; and `COc1ccc([C@@H](NC(=O)c2cnc3nc(-c4ccc(F)cc4)c(CCCCC(=O)O)cc3c2)C(F)(F)F)cc1` [Compound 6i, 2-(4-fluorophenyl)-6-[[[2,2,2-trifluoro-1(R)-(4-methoxyphenyl)ethyl]amino]carbonyl]-1,8-naphthyridine-3-pentanoic acid], with 20.1 to 200 nM.
On the same count and under the same terms, to `O=C(O)CCCCc1cc2cc(C(=O)N[C@H]3CCCc4ccc(F)cc43)cnc2nc1-c1ccc(F)cc1` [Compound 6o, 2-(4-fluorophenyl)-6-[[(7-fluoro-1,2,3,4-tetrahydro-1(S)-naphthalenyl)amino]carbonyl]-1,8-naphthyridine-3-pentanoic acid] belongs 20.1 to 200 nM.

Still in this assay, the particulars now being: values in text.
Turning to `C[C@@H](NC(=O)c1ccc2nc(-c3ccc(F)cc3)c(CCCCC(=O)O)cc2c1)c1cc(Cl)cc(Cl)c1` [Compound 5X, 6-[[[1(R)-(3,5-dichlorophenyl)ethyl]amino]carbonyl]-2-(4-fluorophenyl)-3-quinolinepentanoic acid], the Ki stood at 5.4 nM.
The same measure, in the same setting: to `O=C(O)CCCCc1cc2cc(C(=O)N[C@@H]3CCc4cc(Cl)ccc43)ccc2nc1-c1ccc(F)cc1` [Compound 5o, 6-[[(5-chloro-2,3-dihydro-1H-inden-1(R)-yl)amino]carbonyl)-2-(4-fluorophenyl)-3-quinolinepentanoic acid] belongs 2.7 nM; to `O=C(O)CCCCc1cc2cc(C(=O)N[C@@H]3CCCc4cc(Cl)ccc43)cnc2nc1-c1ccc(F)cc1` [Compound 6G, 6-[[(6-chloro-1,2,3,4-tetrahydro-1(R)-naphthalenyl)amino)carbonyl]-2-(4-fluorophenyl)-1,8-naphthyridine-3-pentanoic acid], 6.3 nM.
For `O=C(O)CCCCc1cc2cc(C(=O)N[C@@H]3CCCc4ccc(F)cc43)cnc2nc1-c1ccc(F)cc1` [Compound 6H, 2-(4-fluorophenyl)-6-[[(7-fluoro-1,2,3,4-tetrahydro-1(R)-naphthalenyl)amino]carbonyl]-1,8-naphthyridine-3-pentanoic acid], the affinity, expressed as Ki, was 161 nM.
